Literature values in patent US20100055163A1, “FORMULATION OF NATURAL T[…] […] FROM THE GENUS OLEA IN LIPOSOMES” (UNIVERSIDAD DE GRANADA, priority 2006, published 2010).

Legend:
[1] = tested on: parasites of the genus Cryptosporidium; parameters: dose or concentration left out as unconfirmed; conditions: MDCK cell lines
[2] = target: HIV-1 protease (Human immunodeficiency virus type 1 group M subtype B, UniProt P04585)
[3] = tested on: acquired immunodeficiency virus; conditions: acts intracellularly
[4] = tested on: membrane hepatocyte lipid peroxidation (LPO); conditions: rats
[5] = tested on: rainbow trout; conditions: added to feed

For `CC1(C)CC[C@]2(C(=O)O)CC[C@]3(C)C(=CC[C@@H]4[C@@]5(C)C[C@@H](O)[C@H](O)C(C)(C)[C@@H]5CC[C@]43C)[C@@H]2C1` [maslinic acid, 2-alpha, 3-beta-dihydroxy-28-carboxy-oleanene], the infection inhibition percentage [1] is given as 92.3%, the “inhibiting activity in vitro of HIV-1 protease” value [2] is given as “powerful inhibiting activity” and the “exit of the virus from the infected cell towards the medium” value [3] is given as “considerably inhibits”. For the same compound, the “lipoperoxide levels and membrane hepatocyte susceptibility to lipid peroxidation (LPO)” value [4] was “reduces lipoperoxide levels and membrane hepatocyte susceptibility to lipid peroxidation (LPO)” and the “hepatic organ and function” value [5] was “significant improvement of the hepatic organ and function”.
